From patent publication EP0925064B1, “5-ANDROSTENE 3 beta,17alpha DIOL AS AN INHIBITOR OF TUMOR GROWTH” (LORIA, Roger M., priority 1996, dated 1997)

Key:
[1] = system: ZR-75-1 cells; experiment: Cell proliferation assay (3H-thymidine incorporation, 6 days); assay type: cell-based, human; details: for cell proliferation (Example 1): six day period
Description: The ZR-75-1 cell line (passage 89) was obtained from the American Type Culture Collection (Rockville, Maryland). The cells were cultured in RPMI-1640 medium containing 10% heat-inactivated fetal calf serum, 200 µM L-glutamine, […], 1.5 U/ml penicillin, and 1.5 µg/ml streptomycin in 5% CO2 at 37°C. The cells were passaged twice weekly.
(§1) Cells were first seeded at initial density of 1x10^5 cells per ml in quadruplicates in 24 multi-well flat bottom plates (Costar). Cells were then allowed to adhere and grow in phenol red-free […] media supplemented with 10 % heat-inactivated fetal calf serum (FCS), 200 µM L-glutamine, 10 mM HEPES, 2.5 U/ml penicillin and 2.5 µg/ml streptomycin in 5% CO2 at 37°C. After 48 hours, four wells were sacrificed and counted to determine plating efficiency. In the remaining wells, medium was removed by aspiration and cells in each well were exposed to the media containing the specified steroid. The controls containing only medium or medium with vehicle were also prepared. In all samples, medium was changed every 48 hours. At the pre-established time-point. Cells were removed by trypsinization and washed. Cell number and viability were determined by trypan blue exclusion using a hemocytometer. Parallel cultures were also run to determine cell proliferation.
(§2) For cell proliferation assays, cell suspensions were prepared by trypsinization of cells from cultures prepared in accord with methods described above. Cell viability was determined by trypan blue exclusion. The cells were then seeded in flat-bottom 96-well microtiter plates at a density of 2X10^3 cells/well and were allowed to rest for 48 hours in order to adhere. Non-adherent dead cells were removed by aspiration. Cells were then grown in media without phenol red. Some of the media contained supplements as indicated above. The active agents or vehicle control were added to the media. The cells were then grown for six days. Media was changed on the samples every 48 hours. On day 6, cells were pulsed with 1 µCi[…] for the last 6 hours of incubation before harvesting onto glass filter using a HPD cell harvester (Cambridge Technology, Watertown, Massachusetts) and counted on a KLB scintillation counter.
(§3) Initial tests were carried out to determine the optimal (maximal) dose of αAED required to inhibit growth of the ZR-75-1 cells in in vitro as determined by tritiated tymidine incorporation. […] To ensure that inhibition was not due to cytotoxicity, cell count and viability were assessed by trypan blue exclusion.
ZR-75-1 cells (2X10^3) were treated as described above over a six day period with differing concentrations of αAED or with vehicle-only cultures. The medium was changed every 48 hours. Cells were pulsed with ^3H-thymidine for the last six hours of incubation.

[2] = system: ZR-75-1 cells; experiment: Cell count and viability by trypan blue exclusion; assay type: cell-based, human
Description: as §1, §3

[3] = system: P388D1 cells; experiment: Growth of lymphoid neoplasm cells in the presence of RU486; assay type: cell-based; details: RU486 at 0.5 µM and 1.0 µM
Description: as §2
Effect of αAED on growth of lymphoid neoplasm (P388D1 cells obtained from the American Type Culture Collection) in the presence of RU486 at concentration of 0.5 µM and 1.0 µM was studied in accord with the methods described above.

[4] = system: RAW 264.7; experiment: Proliferation of macrophage myeloma cells; assay type: cell-based, murine
Description: as §2
Effects of αAED at doses of 50 ηM and 100 ηM doses on murine macrophage myeloma cells (RAW 264.7, obtained from the American Type Culture Collection) was studied.

SMILES	proliferation in the presence of estradiol (Example 3) ([1]; 1 ηM estradiol, higher doses of αAED, 6 day period)	cell proliferation (Example 1) ([1]; 6.25 ηM)	cell proliferation (Example 1) ([1]; 25 ηM)	cell proliferation (Example 1) ([1]; 50 ηM)	maximal dose of anti-proliferative effect ([1]; ZR-75-1 cells, 6 days)	growth of ZR-75-1 cells ([1]; concentration of 25 nM or greater)	proliferation of ZR-75-1 cells compared with the vehicle control ([1]; concentrations between 6.25 and 12.5 ηM (P<0.01))	effect on the growth of ZR-75-1 cells compared to vehicle control ([1]; doses ranging from 3.13 ηM to 50 ηM, after 6 days)	proliferation of cells in the presence of RU486 (Example 5) ([1]; αAED with 0.5 µM RU486)	proliferation of cells in the presence of βAED (Example 2) ([1]; βAED constant at 2.5 ηM, all concentrations of αAED)	antiproliferative effects in the presence of Flutamide (Example 4) ([1]; ≥6.25 ηM αAED, with Flutamide, 6 day period)	cytotoxicity (cell count and viability) [2]	growth of lymphoid neoplasm in the presence of RU486 (Example 8) [3]	proliferation of murine macrophage myeloma cells (Example 9) ([4]; 50 ηM)	proliferation of murine macrophage myeloma cells (Example 9) ([4]; 100 ηM)	antiproliferative effect on the growth of the ZR-75-1 cells ([1]; alone at 100 ηM)
C[C@]12CC[C@H]3[C@@H](CC=C4C[C@@H](O)CC[C@@]43C)[C@@H]1CC[C@H]2O [αAED, 5-androstene 3β,17α diol]	suppressed proliferation	increasing proliferation	decreasing cell proliferation	marked decrease	100 ηM	significantly inhibited the growth	stimulated proliferation	biphasic effect	synergistic action to decrease proliferation of cells	decreased proliferation	greatly enhanced	not toxic	increased effectiveness over use of one agent	significant inhibition of proliferation	significant inhibition of proliferation	–
C[C@]12CC[C@H]3[C@@H](CC=C4C[C@@H](O)CC[C@@]43C)[C@@H]1CC[C@@H]2O [βAED, 5-androstene 3β,17β diol, reference compound]	–	–	–	–	–	–	–	–	–	–	–	–	–	–	–	did not have any antiproliferative effect
